Data taken from patent US20090088461A1, “Methods of Treating or Preventing Cardiac Disease Associated With a High Fat Diet” (Synvista Therapeutics, Inc., priority 2007, published 2009).

Tests used:
Format in all cases: in vivo
[1] = tested on: superoxide production in left ventricular homogenates (gp91^phox, RAC-1, heme oxygenase); assay: Assessment of superoxide production in HF-fed mice
Text: Adult (8-week-old) male […] mice (Precinct Animal Centre, Melbourne, Australia) and RAGE knockout (KO) mice^17 ([…] al., J Clin Invest. 113:1641-50, 2004) were housed in a temperature-controlled room on a 12-h light-dark cycle. Mice were placed on either a standard diet (AIN-93G; Specialty feeds, Perth AUS; n=10/group) or a high fat (HF) diet formulated to mimic a “Western fast food diet”, (SF05-031, Specialty Feeds; n=10). Both diets contained the same vitamin and calorie content. […] Animals receiving a HF diet were further randomized to receive alagebrium chloride at a dose of 1 mg/kg/day delivered by oral gavage. All groups were followed for 16 weeks. The production and accumulation of superoxide and other ROS is a key mediator of […] injury and cellular dysfunction associated with high fat feeding^5 (Boudina and Abel, Circulation 115:3213-23, 2007). […] Following incubation for 60 min at 37° C., before the rate of superoxide anion formation was determined by the addition of 3.8 μM lucigenin (bis-N-methylacridinium nitrate). […] The expression of the NADPH subunits, NOX-2 (gp91^phox), p47^phox, NOX-4 and RAC-1 in left ventricular homogenates, along with the expression of heme oxygenase (HO) and glutathione peroxidase (GPX), key defence mechanism against oxidative stress, were further assessed by real-time quantitative RT-PCR, as detailed above.

[2] = Physiological and biochemical parameters in HF-fed mice; details: HF diet, 1 mg/kg/day oral gavage; for Weight gain (% baseline): 16 weeks
Text: Adult (8-week-old) male […] mice (Precinct Animal Centre, Melbourne, Australia) and RAGE knockout (KO) mice^17 ([…] al., J Clin Invest. 113:1641-50, 2004) were housed in a temperature-controlled room on a 12-h light-dark cycle. Mice were placed on either a standard diet (AIN-93G; Specialty feeds, Perth AUS; n=10/group) or a high fat (HF) diet formulated to mimic a “Western fast food diet”, (SF05-031, Specialty Feeds; n=10). Both diets contained the same vitamin and calorie content. […] Animals receiving a HF diet were further randomized to receive alagebrium chloride at a dose of 1 mg/kg/day delivered by oral gavage. All groups were followed for 16 weeks. The following parameters were serially measured in all groups: body weight; blood glucose, measured using a glucometer; systolic blood pressure, measured by tail-cuff plethysmography in conscious, warmed mice.

[3] = tested on: PPARα, CD36, intra-myocardial triacylglycerol; assay: Assessment of lipid metabolism in HF-fed mice; details: for Gene expression PPAR alpha: HF diet, real time RT-PCR
Text: Adult (8-week-old) male […] mice (Precinct Animal Centre, Melbourne, Australia) and RAGE knockout (KO) mice^17 ([…] al., J Clin Invest. 113:1641-50, 2004) were housed in a temperature-controlled room on a 12-h light-dark cycle. Mice were placed on either a standard diet (AIN-93G; Specialty feeds, Perth AUS; n=10/group) or a high fat (HF) diet formulated to mimic a “Western fast food diet”, (SF05-031, Specialty Feeds; n=10). Both diets contained the same vitamin and calorie content. […] Animals receiving a HF diet were further randomized to receive alagebrium chloride at a dose of 1 mg/kg/day delivered by oral gavage. All groups were followed for 16 weeks. Changes in myocardial energy metabolism, due to altered substrate handling, characterize obesity-related cardiac disease^5 (Boudina and Abel, Circulation 115:3213-23, 2007). In particular, intra-myocardial accumulation of triacylglycerol metabolites mediated by activation of peroxisome proliferator activated receptor α(PPARα) has been strongly associated with cardiac dysfunction in rodents fed a HF diet^20 (Ouwens et al., Diabetologia 48:1229-37, 2005). To assess the interaction of AGE/RAGE with lipotoxicity pathways in this model, the ventricular expression of PPARα and the fatty acid translocase, CD36, were assessed by real-time quantitative RT-PCR. Intra-myocardial accumulation of triacylglycerol metabolites was assessed by staining with Oil red-O in frozen cardiac sections and quantitated in cardiac homogenates extracted using the method of Bligh and Dyer and measured using a standard commercial enzymatic assay.

[4] = Wild-type mice, listed as AL, 1 mg/kg/day

Cc1sc[n+](CC(=O)c2ccccc2)c1C.[Cl-] [alagebrium chloride, 3-(2-phenyl-2-oxoethyl)-4,5-dimethylthiazolium chloride]
Gene expression relative to 18S (AU/18s) ([1]; RAGE KO mice, HF diet, real time RT-PCR, listed as AL): 0.1 ± 0.1 AU/18s | NADH-dependent (mitochondrial) superoxide production in cardiac homogenates ([1]; both wild type and RAGE KO mice, HF diet (FIG. 4)): significantly reduced | Glucose ([2]; RAGE KO mice): 13.7 ± 0.7 mmol/L | Weight gain (% baseline) ([2]; RAGE KO mice): 44 ± 7 % baseline | Weight gain (% baseline) ([2]; Wild-type mice, 1 mg/kg/day): reduced | Weight gain (% baseline) [2, 4]: 27 ± 2 % baseline | Glucose ([2]; Wild-type mice, 1 mg/kg/day): equivalent changes | Glucose [2, 4]: 15.1 ± 0.5 mmol/L | intramyocardial accumulation of lipid (Oil-red O staining, cardiac triglyceride content) ([3]; HF-fed mice (FIG. 1)): unaffected | Expression of the fatty acid translocase, CD36 ([3]; HF-fed mice, RT-PCR): similar | Gene expression PPAR alpha ([3]; RAGE KO mice): reduced | Gene expression PPAR alpha ([3]; RAGE KO mice, listed as AL): 1.2 ± 0.3 AU/18s | Gene expression PPAR alpha ([3]; Wild-type mice): reduced | Gene expression PPAR alpha ([3]; Wild-type mice, listed as AL): 1.9 ± 0.4 AU/18s
